Assay results as given in patent US20050032246A1, “Method of immobilizing membrane-associated molecules” (priority 2002, published 2005).

Experiments:
[1] = Fluo-3 Ca(II) influx into DOPC liposomes in buffered solution after addition of ionophore; assay type: biochemical; conditions: Ca(II) outside, fluo-3 inside, FIG. 14
Procedure: DOPC stock solutions were purchased in chloroform at a concentration of 20 mg.mL^−1. DOPC stock solution was dispensed in disposable glass vials and the organic solvent was removed by evaporation under a dry nitrogen gas stream to remove the bulk of the organic solvent, followed by evaporation under vacuum for two hours. The resulting dried lipid films were then rehydrated in a buffer consisting of 25 mM EGTA, 25 mM EDTA, 10% Sucrose (w/w), 10 mM KCl, 0.529 mM Fluo-3, pH 7.6 to a final lipid concentration of 2 mg/mL. The hydrated liposomes were then extruded through 600 nm pores, with an Avanti—MINIEXTRUDER at room temperature to create a mono-disperse suspension of unilamellar liposomes 600 nm in diameter. The external Fluo-3 was removed by filtration through a column packed with Sephadex G25 to yield liposomes with dye only on the interior of the liposome.
In this case, Ca(II) is initially present only outside the liposome, while fluo-3 is present only inside the liposome. The addition of ionomycin results in the incorporation of the ionophore into the membrane, and produces a channel through which Ca(II) can move into the interior of the liposome. […]

IMR-32 nAChR [2] = assay type: biochemical, human
Procedure: Lipid films consisting of EggPC, EggPE, Sphingomylin and cholesterol in mol ratios of 55:27:9:9 percent, respectively, were prepared as described earlier, and rehydrated to a final lipid concentration of 3.0 mg/mL and Fluo-3 concentration of 65 μM. The liposome stock was then mixed with a small amount of DMM bringing the solution to a final concentration of 0.2 mM. Immediately following this, IMR-32 nAChR stock was added to the detergent lipid mixture and allowed to incubate at 4° C. for 90 min. Following this 15 mg of SM2-Biobeads were added to the mixture and incubated for 1 hr. This was repeated 3 times with the final addition allowed to incubate for a period of 12 hrs. […]
In these assays, IMR-32 nAChR containing liposomes with an intraliposomal solution of Fluo-3 were entrapped as described above in 1:1 (v/v) in DGS derived silica. […] Antagonism of the nAChR ion channel was measured by addition of 25 μL of the nAChR antagonist d-tubocurarine to the top of the nAChR-containing monolith in the 96-well plate. Ligand-gated ion-flux was monitored through time dependent changes in fluorescence intensity upon the addition of 50 μL of 3 M CaCl2 using a TECAN-Safire microwell platereading fluorescence system. Fluo-3 emission was monitored and 526 nm with an excitation wavelength of 488 nm, emission and excitation bandpasses of 5 and 7.5 nm, and a detector gain of 130 V, over a period of 45 min. […]

IMR-32 nAChR [3] = assay type: binding, human; conditions: IMR-32 nAChR entrapped in DGS; constant 3H-epibetadine; FIG. 10
Procedure: Sodium silicate or DGS derived sol precursors were prepared by methods described previously.^64 The sol solution was mixed 1:1 (v/v) with the buffered liposome or reconstituted nAChR solution, in the bottoms of 96 well microtiter plates to a final volume of 100 μL. For entrapment of IMR-32 cells for ion flux assays, the nAChR containing stock described above was uses for entrapment without further dilution. For radioassays using IMR-32 nAChR, the stock sample as provided directly from Perkin Elmer was diluted four fold in 25 mM HEPES, 100 mM KCl, 5 mM EGTA, pH 7.4 and mixed 1:1 (v/v) in DGS derived sol. The samples were aged for 1 hr at 4° C. For Torpedo Californica nAChR, the stock sample was diluted four fold in 150 mM HEPES, 100 mM KCl, 5 mM EDTA, pH 7.4, and mixed 1:1 (v/v) with sodium silicate derived sol.
Samples of either entrapped Torpedo californica nAChR, IMR-32 nAChR or Asolectin liposomes were formed in the bottoms of 96-well microtiter plates. […] The radioactive decay from ^3H-epibatidine was then counted for 5 min to determine the ratio of free ligand existing in solution. […] Using the information from these samples the amount of receptor bound ligand could be determined. […] Free ligand was determined as described above.

gramicidin A = assay: Safranine O ion-channel activity assay of reconstituted gramicidin A entrapped in DGS derived silicate; assay type: biochemical; conditions: various levels of CaCl2 with 3.0 M KI; several hundred millimolar Ca2+ required; FIG. 6
Procedure: The Gramicidin A stock was prepared in a solution of chloroform, trifluoroethanol and dimethylsulfoxide (19:5:1 volume ratio) to a final concentration of 4.79×10^−4M. Gramicidin A stock solutions were mixed with the lipid stock solutions (20 mg.mL^−1 DOPC in chloroform) in disposable glass vials to provide final ratios of gA:lipid of either 0.39 mol % or 0.94 mol %. The organic solvent was removed by evaporation under a dry nitrogen gas stream to remove the bulk of the organic solvent, followed by evaporation under vacuum for two hours. […]
For ion-channel studies, reconstitution of gramicidin A samples was done using an unbuffered aqueous solution containing 50 μM safranine O at pH 7.0. […] Liposome solutions that were used for tryptophan fluorescence studies consisted of 0.94 mol % of gramicidin A in DOPC that was hydrated to final concentrations of 1.0 μM of gA in 100 mM phosphate buffer at pH 7.0. […]
The fluorescence intensity response of safranine O was monitored using the MICROMAX microwell plate reader. Fluorescence emission was monitored as a function of time at 565 nm with an excitation wavelength of 528 nm upon addition of 125 μL of various concentrations of potassium iodide to the top of the monolithic samples in the microwell plate to create an ionic gradient across the membrane. […]

For C[C@H](CCC(=O)O)C[C@H](C)C[C@H](C)C(=O)/C=C(\O)[C@H](C)C[C@H](C)C/C=C/[C@@H](C)[C@@H](O)[C@@H](C)[C@@H](O)C[C@@H]1CC[C@@](C)([C@H]2CC[C@@](C)([C@@H](C)O)O2)O1 [ionomycin], the “increase of fluo-3 response on Ca(II) influx” value [1] was 3 fold.
In the case of O=c1cccc2n1C[C@@H]1CNC[C@H]2C1 [cytisine], the “fluo-3 emission response to Ca(II) (ion flux) upon addition of agonist” value (IMR-32 nAChR [2]) is reported as “acts as an agonist”.
In the case of COc1cc2c3cc1Oc1cc(ccc1O)C[C@@H]1c4c(cc(OC)c(O)c4Oc4ccc(cc4)C[C@@H]3N(C)CC2)CC[N+]1(C)C [d-tubocurarine], the “fluo-3 emission response to Ca(II) (ion flux) upon addition of antagonist” value (IMR-32 nAChR [2]; liposomes previously incubated with excess nicotine, FIG. 12) is reported as “the response is reduced” and the “IC50 and KI values compared with solution based experiments” value (IMR-32 nAChR [3]) is reported as “in good agreement with those obtained from solution based experiments”.
In the case of [Ca+2].[Cl-].[Cl-] [CaCl2], the “potential induced fluorescence response to potassium ion flux (inhibition of ion-channel activity)” value (gramicidin A) is reported as “significant and concentration-dependent decrease”.
For CN1CCCC1c1cccnc1 (single isomer, unassigned; (-)) [nicotine, (−)-nicotine], the “IC50 and KI values compared with solution based experiments” value (IMR-32 nAChR [3]) was “in good agreement with those obtained from solution based experiments”.
